Experimental data as given in patent US11439607B2 (Paracelsus Neuroscience I, LLC, priority 2016, dated 2022).

Test system: Rat primary microglia
Assay: Microglial NO release (measurement of nitrite) after LPS
Type: cell-based
Settings: 24 hours
Experimental: Next, 3 EU/ml of ultra-pure Lipopolysaccharide (CSE, Associates of Cape Cod) was added to induce iNOS expression and NO synthesis. After a total incubation time of 24 hours, media was collected, spun down to remove cells and assayed for nitrite (the stable breakdown product of NO) using Griess Reagent (Promega, Madison Wis.).
After 24 hours, media was assayed for nitrite (stable metabolite of NO). […] Primary rat cortical microglia were also treated with LPS (3 EU/ml, 3 hours) to stimulate the production of pro-IL-1β.

EC50 (FIG. 2A legend, LPS 3EU/ml, n=3, read-out: EC50, inhibition of NO production (nitrite), representative experiment): 0.9 nM
IC50 (LPS 3 EU/ml, nitrite, read-out: IC50, inhibition of NO release from LPS-treated microglia (average)): 39 nM
SMILES: NC(=O)C(c1ccccc1)(c1ccc(F)cc1)c1ccc(F)cc1 [Senicapoc]
